Reference: ChEMBL document CHEMBL3045232, “Inhibition of photophosphorylation and electron transport chain in thylakoids by lasiodiplodin, a natural product from Botryosphaeria rhodina” (J Agric Food Chem, 2007)
Calls of active or inactive are those of the source. The rule behind the calls is not given here.

What was measured:
[1] = tested on: Spinacia oleracea; experiment: Inhibition of ATP sythesis in freshly lysed Spinacia oleracea (spinach) chloroplasts; type: functional, organism-based
[2] = tested on: Spinacia oleracea; experiment: Inhibition of thylakoid electron transport chain in intact chloroplasts of Spinacia oleracea (spinach) leaves assessed as inhibition of uncoupled PS2 electron transport from […] to DCPIP at 300 uM relative to control; conditions: values are per cent of control
[3] = tested on: Spinacia oleracea; experiment: In vitro inhibition of photophosphorylation in intact chloroplasts of Spinacia oleracea (spinach) leaves assessed as phosphorylating nonyclic electron transport from water to methylviologen; type: functional
[4] = target: T1, Chloroplast coupling factor 1 (Spinacia oleracea) (UniProt P00825+P06453+P69447+P06451+P05435+P31853+P06450+P11402+P00833); experiment: Inhibition of H+ ATPase activity of coupling factor 1 in chloroplasts of Spinacia oleracea (spinach) leaves at 200 uM; type: protein-complex assay
[5] = tested on: Spinacia oleracea; experiment: In vitro inhibition of photophosphorylation in intact chloroplasts of Spinacia oleracea (spinach) leaves assessed as inhibition of uncoupled electron transport from water to methylviologen at 300 uM; type: functional
[6] = tested on: Spinacia oleracea; experiment: Inhibition of thylakoid electron transport chain in intact chloroplasts of Spinacia oleracea (spinach) leaves assessed as inhibition of uncoupled PS2 electron transport from water to SiM at 200 uM relative to control; conditions: values are per cent of control
[7] = tested on: Spinacia oleracea; experiment: Inhibition of thylakoid electron transport chain in intact chloroplasts of Spinacia oleracea (spinach) leaves assessed as inhibition of uncoupled PS2 electron transport from […] to DCPIP at 100 uM relative to control; conditions: values are per cent of control
[8] = target: T1, Chloroplast coupling factor 1 (Spinacia oleracea); experiment: Inhibition of Mg2+ ATPase activity of coupling factor 1 in chloroplasts of Spinacia oleracea (spinach) leaves at 150 uM; type: protein-complex assay; conditions: values are per cent of control
[9] = tested on: Spinacia oleracea; experiment: Inhibition of thylakoid electron transport chain in intact chloroplasts of Spinacia oleracea (spinach) leaves assessed as inhibition of uncoupled PS2 electron transport from water to SiM at 400 uM relative to control; conditions: values are per cent of control
[10] = target: T1, Chloroplast coupling factor 1 (Spinacia oleracea); experiment: Inhibition of Mg2+ ATPase activity of coupling factor 1 in chloroplasts of Spinacia oleracea (spinach) leaves at 50 uM; type: protein-complex assay; conditions: values are per cent of control
[11] = tested on: Spinacia oleracea; experiment: Induction of Chlorophyll a fluorescence induction curve in freshly lysed chloroplasts of Spinacia oleracea (spinach) at 10 uM; type: functional, organism-based
[12] = tested on: Spinacia oleracea; experiment: Inhibition of thylakoid electron transport chain in intact chloroplasts of Spinacia oleracea (spinach) leaves assessed as inhibition of uncoupled PS2 electron transport from […] to DCPIP at 200 uM relative to control; conditions: values are per cent of control
[13] = tested on: Spinacia oleracea; experiment: Induction of Chlorophyll a fluorescence induction curve in freshly lysed chloroplasts of Spinacia oleracea (spinach) at 300 uM; type: functional, organism-based
[14] = tested on: Spinacia oleracea; experiment: Inhibition of ATP sythesis in freshly lysed Spinacia oleracea (spinach) chloroplasts at 150 uM; type: functional, organism-based
[15] = tested on: Spinacia oleracea; experiment: Inhibition of thylakoid electron transport chain in intact chloroplasts of Spinacia oleracea (spinach) leaves assessed as inhibition of uncoupled PS2 electron transport from water to SiM at 300 uM relative to control; conditions: values are per cent of control
[16] = target: T1, Chloroplast coupling factor 1 (Spinacia oleracea); experiment: Inhibition of Ca2+ ATPase activity of coupling factor 1 in chloroplasts of Spinacia oleracea (spinach) leaves at 50 uM; type: protein-complex assay
[17] = target: T1, Chloroplast coupling factor 1 (Spinacia oleracea); experiment: Inhibition of Mg2+ ATPase activity of coupling factor 1 in chloroplasts of Spinacia oleracea leaves at 25 uM; type: protein-complex assay; conditions: values are per cent of control
[18] = tested on: Spinacia oleracea; experiment: In vitro inhibition of photophosphorylation in intact chloroplasts of Spinacia oleracea (spinach) leaves assessed as basal electron transport from water to methylviologen; type: functional
[19] = target: T1, Chloroplast coupling factor 1 (Spinacia oleracea); experiment: Inhibition of H+ ATPase activity of coupling factor 1 in chloroplasts of Spinacia oleracea (spinach) leaves at 50 uM; type: protein-complex assay
[20] = target: T1, Chloroplast coupling factor 1 (Spinacia oleracea); experiment: Inhibition of Ca2+ ATPase activity of coupling factor 1 in chloroplasts of Spinacia oleracea (spinach) leaves at 150 uM; type: protein-complex assay
[21] = tested on: Spinacia oleracea; experiment: Inhibition of thylakoid electron transport chain in intact chloroplasts of Spinacia oleracea (spinach) leaves assessed as inhibition of uncoupled PS2 electron transport from water to SiM at 100 uM relative to control; conditions: values are per cent of control
[22] = target: T1, Chloroplast coupling factor 1 (Spinacia oleracea); experiment: Inhibition of H+ ATPase activity of coupling factor 1 in chloroplasts of Spinacia oleracea (spinach) leaves at 150 uM; type: protein-complex assay
[23] = target: T1, Chloroplast coupling factor 1 (Spinacia oleracea); experiment: Inhibition of Ca2+ ATPase activity of coupling factor 1 in chloroplasts of Spinacia oleracea (spinach) leaves at 25 uM; type: protein-complex assay

CC(C)[C@@H](C)/C=C/[C@@H](C)[C@H]1CC[C@H]2C3=CC=C4C[C@@H](O)CC[C@]4(C)[C@H]3CC[C@]12C
I50 [1]: inactive

O=c1[nH]cnc2c1ncn2[C@@H]1O[C@H](CO)[C@@H](O)[C@H]1O
I50 [1]: inactive

OCCc1ccc(O)cc1
I50 [1]: inactive

COc1cc(O)cc2c1C(=O)O[C@@H](C)CCCCCCC2 [LASIODIPLODIN]
residual activity [2]: 27%
inhibition [3]: Active
inhibition [4]: 97.7%
inhibition [5]: 100%
residual activity [6]: 70%
residual activity [7]: 87%
residual activity [8]: 49.4%
residual activity [9]: 0%
residual activity [10]: 54.5%
Activity [11]: Active
residual activity [12]: 75%
Activity [13]: Active
inhibition [14]: 100%
residual activity [15]: 40%
inhibition [16]: 87.5%
residual activity [17]: 62.3%
inhibition [18]: Active
inhibition [19]: 95%
IC50 ([1]; read-out: I50): 35.6 µM
inhibition [20]: 84.1%
residual activity [21]: 80%
inhibition [22]: 98.5%
inhibition [23]: 95.6%
